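48-hour exposure; five concentrations; linearly interpolated endpoints. Abbreviation: GI50, concentration required for 50% inhibition of growth. TGI denotes the concentration required for complete inhibition of growth.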 Where a SMILES comes first, the peptide text is derived from it. Bridges are numbered along the chain shown (N, C = ends).
Columns and labels:
Assay in all cases: NCI tumour cell line growth inhibition, 48 h
[1] = system: HOP-92 NSCLC
[2] = system: OVCAR-5 ovarian
[3] = system: SF-268 CNS
[4] = system: SK-MEL-28 melanoma
[5] = system: T-47D breast
[6] = system: LOX IMVI melanoma
[7] = system: MDA-MB-435
[8] = system: OVCAR-4 ovarian
[9] = system: RPMI-8226 leukemia
[10] = system: SW-620 colon

Compound | GI50 [1] | TGI [1] | GI50 [2] | TGI [2] | GI50 [3] | TGI [3] | GI50 [4] | TGI [4] | GI50 [5] | TGI [5] | GI50 [6] | TGI [6] | TGI [7] | GI50 [8] | TGI [8] | GI50 [9] | TGI [9] | GI50 [10] | TGI [10] | GI50 [7]
Cc1nccc2c3ccc(OCc4cn(-c5ccc(Br)cc5)nn4)cc3n(CCCc3ccccc3)c12 | 47.4 µM | > 100 µM | 2.15 µM | 6.72 µM | 2.17 µM | 5.85 µM | 1.72 µM | 3.45 µM | > 100 µM | > 100 µM | – | – | – | – | – | – | – | – | – | –
COc1cc(C(=O)c2cnc(-c3ccc4cc[nH]c4c3)[nH]2)cc(OC)c1OC | 0.632 µM | 6.16 µM | 0.225 µM | 23.9 µM | 0.0808 µM | 7.19 µM | 0.454 µM | 16 µM | – | – | 0.105 µM | 1.98 µM | 0.0245 µM | 0.993 µM | 20 µM | 0.0417 µM | 2.77 µM | 0.0398 µM | 21.7 µM | –
CCN(CC)CCNc1ccc(N=Nc2cnc3ccccc3c2)c2ccccc12 | – | – | 1.64 µM | 3.24 µM | 1.74 µM | 3.48 µM | 1.79 µM | 3.29 µM | 1.81 µM | 4.08 µM | 1.43 µM | 2.77 µM | – | 1.85 µM | 3.88 µM | – | – | 1.83 µM | 3.47 µM | –
COc1ccccc1-c1ccc2c(N)c(C(=O)c3ccc4c(c3)OCO4)sc2n1 | 2.99 µM | 13 µM | 11.2 µM | 29.5 µM | 7.55 µM | 32.4 µM | 5.03 µM | 19.9 µM | 3.39 µM | 14.4 µM | 4.61 µM | 21.6 µM | 9.54 µM | – | – | 6.05 µM | 59.4 µM | 4.34 µM | > 100 µM | 2.27 µM
CCCCCCCCCCCCCC(=O)NO | – | 43.6 µM | – | > 74.1 µM | – | 26.9 µM | – | 75.8 µM | – | – | – | 15.5 µM | 67 µM | – | 39.3 µM | – | > 100 µM | – | 82.6 µM | –
CSC(=NC(=O)c1ccccc1)SCCSC(=NC(=O)c1ccccc1)SC | – | 83.4 µM | – | > 100 µM | – | > 100 µM | – | > 100 µM | – | – | – | > 100 µM | – | – | 87.6 µM | – | > 100 µM | – | > 100 µM | –
NS(=O)(=O)c1ccc(-n2nc(-c3ccccc3)cc2-c2cc(O)ccc2O)cc1 | > 100 µM | > 100 µM | 25.3 µM | 92.6 µM | > 100 µM | > 100 µM | 94.3 µM | > 100 µM | > 100 µM | > 100 µM | 27.7 µM | 63.2 µM | > 100 µM | – | – | – | – | > 100 µM | > 100 µM | 92.1 µM
O=C(CO)CC(=O)C(=O)Nc1cccc(C(F)(F)F)c1 | – | > 100 µM | – | > 100 µM | – | > 100 µM | – | > 100 µM | – | – | – | > 100 µM | – | – | > 100 µM | – | > 100 µM | – | > 100 µM | –
CCC1=CCC(P(=O)(c2ccccc2)c2ccccc2)CC1C (centres undefined) | – | 71.6 µM | – | > 100 µM | – | > 100 µM | – | > 100 µM | – | – | – | > 100 µM | – | – | > 100 µM | – | 52.9 µM | – | > 100 µM | –
CCc1cc2c(Nc3ccccc3)c3c(nc2s1)CCCC3 | – | > 100 µM | – | > 100 µM | – | > 100 µM | – | > 100 µM | – | – | – | 42 µM | – | – | > 100 µM | – | 87 µM | – | > 100 µM | –
COc1ccc(C(=O)Nc2ccn(CCOC(=O)c3ccc(OC)cc3)c(=O)n2)cc1 | – | > 100 µM | – | > 100 µM | – | > 100 µM | – | > 100 µM | – | – | – | > 100 µM | – | – | > 100 µM | – | > 100 µM | – | > 100 µM | –
COC(=O)c1cc2c([nH]c3ccccc32)c(-c2nc3ccccc3cc2CO)n1 | 53.5 µM | > 100 µM | > 100 µM | > 100 µM | > 100 µM | > 100 µM | > 100 µM | > 100 µM | > 100 µM | > 100 µM | > 100 µM | > 100 µM | > 100 µM | > 100 µM | > 100 µM | – | – | > 100 µM | > 100 µM | > 100 µM
CCC(C)C1NC(=O)C(CC(C)C)NC(=O)C(C(C)C)NC(=O)C2CSSCC(NC1=O)C(=O)N2 (centres undefined) (cyclo(CCVLI); disulfide 1-2; configuration not given here) | – | 0.248 µM | – | 0.381 µM | – | – | – | 0.269 µM | – | 0.182 µM | – | 0.239 µM | 0.391 µM | – | 0.362 µM | – | – | – | – | –
COc1ccccc1/C=C1\CCC(CN2CCOCC2)C1=O (centres undefined) | – | 40.2 µM | – | 33.7 µM | – | 41.7 µM | – | 29.6 µM | – | – | – | 15.7 µM | 20.4 µM | – | 35.6 µM | – | – | – | 11.5 µM | –
CC(=O)OC(C)(C)C[N+](=O)[O-] | – | > 100 µM | – | > 100 µM | – | > 100 µM | – | > 100 µM | – | – | – | > 100 µM | – | – | > 100 µM | – | > 100 µM | – | > 100 µM | –
Cc1cc(C(=O)CC(Cl)=C(Cl)Cl)c(Cl)cc1Cl | – | – | 29.8 µM | 79.8 µM | 20.9 µM | 55.8 µM | 33.5 µM | > 100 µM | 19.9 µM | 44.2 µM | 17.6 µM | 33.8 µM | 43.1 µM | 27.6 µM | 72.3 µM | 16.6 µM | 40.8 µM | 21.7 µM | 52.3 µM | 17.1 µM
CCOP(=O)(OCC)C(NC(c1ccccc1)c1ccccc1)c1ccsc1 (centres undefined) | 14.3 µM | 30.8 µM | 16.9 µM | 32.6 µM | 15.5 µM | 36.2 µM | – | – | – | – | – | – | 39.7 µM | – | – | 7.76 µM | 22 µM | 29.2 µM | 61.5 µM | 21.2 µM
COc1ccc2[nH]cc(C3(c4c[nH]c5ccc(OC)cc45)C(=O)Nc4ccc(Cl)cc43)c2c1 | 2.2 µM | 10.3 µM | 4.08 µM | 43.1 µM | 4.81 µM | 57.9 µM | 3.1 µM | 13.1 µM | 4.93 µM | > 100 µM | 2.16 µM | 5.33 µM | – | 3.67 µM | 30.5 µM | 6.51 µM | > 100 µM | 3.89 µM | 49.4 µM | –
CN(C)c1ccc2cc3c(cc2c1)Oc1ccccc1N3.[Cl][Zn][Cl] | 2.59 µM | 8.33 µM | 1.96 µM | 6.35 µM | 13.6 µM | 27.2 µM | 2.5 µM | 7.04 µM | – | – | 1.6 µM | 3.22 µM | 4.19 µM | 2.75 µM | 13.6 µM | 3.98 µM | 31 µM | – | – | 1.98 µM

From PubChem BioAssay (NCI)
